From patent publication US9839214B2, “Solavetivone and 5-epi-beta-vertivone as pest repellants and pesticides” (EVOLVA, INC., priority 2012, dated 2017)

How the values were obtained:
[1] = tested on: bed bug (Cimex lectularius); assay: Extended bed bug repellency, same treated chambers with new bed bugs, Day 2; assay type: in vivo; settings: for Repellancy / Repellancy, Averages: 0.5% active and 0.1% BHT in acetone on filter paper; for Repellancy / # bed bugs on the treated filter paper: Day 2, new bed bugs; for Repellancy: 50 bed bugs; for Repellancy, Averages / # bed bugs on the treated filter paper, Averages / time for which bed bugs are repelled following treatment: Day 2; for Repellancy, Averages / # bed bugs on the treated filter paper, Averages: average of 0.5-24 hr readings; for # bed bugs on the treated filter paper / # bed bugs on the treated filter paper, Averages: 0.5% active and 0.1% BHT in acetone, of 50 bed bugs; for time for which bed bugs are repelled following treatment: 0.5% active, extended test
Description: The bed bug (Cimex lectularius) treatment chambers described in part A above were used to test the duration of 0.5% solavetivone in acetone repellent effects. At the end of 24 hours, the old bed bugs were removed from each Petri dish and 10 new bed bugs were added to each dish, for a total of 50 bed bugs. The distribution of the new set of bed bugs was recorded at 0.5, 1, 1.5, 2, and 24 hours after their introduction to the chamber (Day 2). Observations were made and repellency was calculated as described in Section A above. […] The bed bug (Cimex lectularius) treatment chambers described in part A above were used to test the duration of 0.5% 5-epi-β-vetivone in acetone repellent effects. At the end of 24 hours, the old bed bugs were removed from each Petri dish and 10 new bed bugs were added to each dish, for a total of 50 bed bugs. The distribution of the new set of bed bugs was recorded at 0.5, 1, 1.5, 2, and 24 hours after their introduction to the chamber (Day 2). Observations were made and repellency was calculated as described in Section A above.

[2] = tested on: adult bed bugs (Cimex lectularius); assay: Bed bug repellency on half-treated filter paper in Petri dish chambers, Day 1; assay type: in vivo; settings: for Repellancy / Repellancy, Averages: 0.5% active and 0.1% BHT in acetone on filter paper; for Repellancy / Repellancy, Averages / # bed bugs on the treated filter paper / # bed bugs on the treated filter paper, Averages: Day 1; for Repellancy: 50 bed bugs; for Repellancy, Averages / # bed bugs on the treated filter paper, Averages: average of 0.5-24 hr readings; for # bed bugs on the treated filter paper / # bed bugs on the treated filter paper, Averages: 0.5% active and 0.1% BHT in acetone, of 50 bed bugs; for time for which bed bugs are repelled following treatment: 0.5% active, Day 1 test
Description: A formulation, containing 0.5% solavetivone and 0.1% butylated hydroxytoluene (BHT) in acetone was tested for efficacy for repelling adult bed bugs (Cimex lectularius). Treatment chambers were created by cutting a circular hole in the bottom of 9-cm Petri dishes. A fine mesh nylon cloth was then glued to Petri dishes, covering the holes. The chambers were formed using the inverted Petri dishes with the screened bottoms serving as the tops and the lids forming the base of the chambers. The lids were secured with rubber bands. Five semi-circular pieces of filter paper, with a diameter of 9 cm were arranged so that they were evenly spaced on a sheet of aluminum foil. One (1) mL of 0.5% solavetivone solution, stored at ambient temperature and humidity, was applied to the filter papers. Five untreated semi-circular pieces were marked with the letter “c”, for control, on both sides in pencil or solvent resistant ink. One solavetivone-treated filter paper and one untreated filter paper were placed with the flat sides against each other, creating a full circle, in the lids of five 9-cm Petri dishes, serving as the treatment chambers described above, such that the entire surface of the lid was covered. Prior to addition of the bed bugs, the filter papers were confirmed to be completely dry and free of any residual acetone odor. Ten (10) bed bugs, having received a blood meal no more than 7 days before, were placed onto the untreated piece of paper and covered with the ventilated base of the Petri dish. The containers of each replicate were then kept at ambient laboratory temperature and humidity for the duration of the study. The distribution of the bed bugs on the treated and untreated filter papers was recorded at 0.5, 1, 1.5, 2, and 24 hours after being placed in the containers. Observations were made in darkness with the aid of a red lens flashlight. Gloves and a dust mask were worn by the observer to reduce detection of the bed bugs and to minimize disturbance caused by the observer. Five additional treatment chambers were created as described above, except the treated filter paper was soaked with acetone with 0.1% BHT (control treatment), instead of the 0.5% solavetivone solution. Bed bug distribution in the control chambers were recorded as described for the treatment condition. The solavetivone treatment repellency was calculated from the following equation: R=[(C−T)/C]*100, where R is the % repellency, C is the fraction of bed bugs on the acetone-treated filter papers, and T is the fraction of bed bugs on the solavetivone-treated filter papers. […] A formulation, containing 0.5% 5-epi-β-vetivone and 0.1% butylated hydroxytoluene (BHT) in acetone was tested for efficacy for repelling adult bed bugs (Cimex lectularius). Treatment chambers were prepared as described in Example 1A. Five semi-circular pieces of filter paper, with a diameter of 9 cm were arranged so that they were evenly spaced on a sheet of aluminum foil. One (1) mL of 0.5% 5-epi-β-vetivone solution, stored at ambient temperature and humidity, was applied to the filter papers. Five untreated semi-circular pieces were marked with the letter “c”, for control, on both sides in pencil or solvent resistant ink. One 5-epi-β-vetivone-treated filter paper and one untreated filter paper were placed with the flat sides against each other, creating a full circle, in the lids of five 9-cm Petri dishes, serving as the treatment chambers described above, such that the entire surface of the lid was covered. Prior to addition of the bed bugs, the filter papers were confirmed to be completely dry and free of any residual acetone odor. Ten (10) bed bugs, having received a blood meal no more than 7 days before, were placed onto the untreated piece of paper and covered with the ventilated base of the Petri dish. The containers of each replicate were then kept at ambient laboratory temperature and humidity for the duration of the study. […]

Row | Compound | Repellancy ([1]; 0.5 hr after introduction) [%] | Repellancy ([1]; 1.0 hr after introduction) [%] | Repellancy ([1]; 1.5 hr after introduction) [%] | Repellancy ([1]; 2.0 hr after introduction) [%] | Repellancy ([1]; 24.0 hr after introduction) [%] | Repellancy, Averages [1] [%] | # bed bugs on the treated filter paper ([1]; 0.5 hr) | # bed bugs on the treated filter paper ([1]; 1.0 hr) | # bed bugs on the treated filter paper ([1]; 1.5 hr) | # bed bugs on the treated filter paper ([1]; 2.0 hr) | # bed bugs on the treated filter paper ([1]; 24.0 hr) | # bed bugs on the treated filter paper, Averages [1] | time for which bed bugs are repelled following treatment [1] | Repellancy ([2]; 0.5 hr) [%] | Repellancy ([2]; 1.0 hr) [%] | Repellancy ([2]; 1.5 hr) [%] | Repellancy ([2]; 2.0 hr) [%] | Repellancy ([2]; 24.0 hr) [%] | Repellancy, Averages [2] [%] | # bed bugs on the treated filter paper ([2]; 0.5 hr) | further results
1 | CC1=CC(=O)C[C@@H](C)[C@@]12CCC(=C(C)C)C2 [5-epi-β-vetivone] | 92.0 | 94.0 | 94.0 | 92.0 | 96.0 | 93.6 | 4 | 3 | 3 | 4 | 2 | 3.2 | at least 48 hours | 88.0 | 94.0 | 98.0 | 96.0 | 100.0 | 95.2 | 6 | # bed bugs on the treated filter paper ([2]; 1.0 hr): 3; # bed bugs on the treated filter paper ([2]; 1.5 hr): 1; # bed bugs on the treated filter paper ([2]; 2.0 hr): 2; # bed bugs on the treated filter paper ([2]; 24.0 hr): 0; # bed bugs on the treated filter paper, Averages [2]: 2.4; time for which bed bugs are repelled following treatment [2]: at least 24 hours
2 | C=C(C)[C@@H]1CC[C@@]2(C1)C(C)=CC(=O)C[C@H]2C [Solavetivone, solavetivone] | 96.0 | 96.0 | 88.0 | 90.0 | 90.0 | 92.0 | 2 | 2 | 6 | 5 | 5 | 4.0 | at least 48 hours | 92.0 | 90.0 | 92.0 | 96.0 | 98.0 | 93.6 | 4 | # bed bugs on the treated filter paper ([2]; 1.0 hr): 5; # bed bugs on the treated filter paper ([2]; 1.5 hr): 4; # bed bugs on the treated filter paper ([2]; 2.0 hr): 2; # bed bugs on the treated filter paper ([2]; 24.0 hr): 1; # bed bugs on the treated filter paper, Averages [2]: 3.2; time for which bed bugs are repelled following treatment [2]: at least 24 hours
